According to patent publication US20250034216A1, “STEREOSELECTIVE COVALENT LIGANDS FOR ONCOGENIC AND IMMUNOLOGICAL PROTEINS” (The Scripps Research Institute, priority 2021, published 2025):

Experiments:
Test in all cases: IA-DTB cysteine engagement
Assay type in all cases: binding
Settings in all cases: 22Rv1 cells, 20 μM probe, 1 h, relative to DMSO
HSD11B2_C264 = molecular target: T1, HSD11B2_C264 (Homo sapiens, UniProt P80365)
T1 construct: endogenous in cells; host or cells: 22Rv1
T1 sequence (P80365 1-405): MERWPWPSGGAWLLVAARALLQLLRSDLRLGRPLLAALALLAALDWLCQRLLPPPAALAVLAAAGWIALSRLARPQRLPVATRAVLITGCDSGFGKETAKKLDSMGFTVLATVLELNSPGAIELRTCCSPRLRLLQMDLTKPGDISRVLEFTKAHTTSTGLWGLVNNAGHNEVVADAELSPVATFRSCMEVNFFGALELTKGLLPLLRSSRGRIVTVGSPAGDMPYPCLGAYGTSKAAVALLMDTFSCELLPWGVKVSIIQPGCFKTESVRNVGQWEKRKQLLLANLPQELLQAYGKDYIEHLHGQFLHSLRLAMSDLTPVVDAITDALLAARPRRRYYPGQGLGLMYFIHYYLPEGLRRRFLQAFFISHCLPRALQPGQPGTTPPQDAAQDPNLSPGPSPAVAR
In short: (§1)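 Cells were treated in situ with electrophilic probes, then lysed, and the lysates (2 mg/mL protein) were labeled with IA-DTB for 1 h at ambient temperature. After reduction, alkylation and trypsin digestion, labeled peptides were streptavidin-enriched, TMT-labeled and fractionated. Engagement ratios are probe vs DMSO reporter intensities, averaged across replicates.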

ZNF346_C68 = molecular target: T2, ZNF346_C68 (Homo sapiens, UniProt Q9UL40)
T2 construct: endogenous in cells; host or cells: 22Rv1
T2 sequence (Q9UL40 1-294): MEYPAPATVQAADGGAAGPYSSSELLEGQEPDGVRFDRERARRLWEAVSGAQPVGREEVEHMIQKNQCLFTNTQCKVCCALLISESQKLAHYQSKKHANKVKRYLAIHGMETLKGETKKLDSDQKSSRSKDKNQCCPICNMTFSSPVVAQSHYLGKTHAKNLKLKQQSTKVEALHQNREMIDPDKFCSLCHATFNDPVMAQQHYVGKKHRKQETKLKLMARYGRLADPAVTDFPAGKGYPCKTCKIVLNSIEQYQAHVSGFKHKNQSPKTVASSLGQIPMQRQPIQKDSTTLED
In short: as §1

NELFCD_C169 = molecular target: T3, NELFCD_C169 (Homo sapiens, UniProt Q8IXH7)
T3 construct: endogenous in cells; host or cells: 22Rv1
T3 sequence (Q8IXH7 whole entry): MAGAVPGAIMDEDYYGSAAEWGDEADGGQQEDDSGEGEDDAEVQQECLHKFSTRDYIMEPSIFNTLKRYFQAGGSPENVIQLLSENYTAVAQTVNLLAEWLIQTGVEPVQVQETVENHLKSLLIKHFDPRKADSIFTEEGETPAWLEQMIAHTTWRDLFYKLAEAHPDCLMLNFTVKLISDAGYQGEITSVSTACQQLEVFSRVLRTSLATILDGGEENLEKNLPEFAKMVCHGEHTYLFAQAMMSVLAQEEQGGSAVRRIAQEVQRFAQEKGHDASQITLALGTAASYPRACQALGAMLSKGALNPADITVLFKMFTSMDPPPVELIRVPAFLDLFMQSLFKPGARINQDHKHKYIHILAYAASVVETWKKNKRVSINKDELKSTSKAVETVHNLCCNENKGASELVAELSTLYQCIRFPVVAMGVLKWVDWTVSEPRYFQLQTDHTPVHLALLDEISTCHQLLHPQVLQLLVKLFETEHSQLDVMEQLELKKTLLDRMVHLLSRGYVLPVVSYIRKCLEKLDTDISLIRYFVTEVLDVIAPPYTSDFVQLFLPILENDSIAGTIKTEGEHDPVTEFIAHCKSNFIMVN
In short: as §1

HARS2_C173 = molecular target: T4, HARS2_C173 (Homo sapiens, UniProt P49590)
T4 construct: endogenous in cells; host or cells: 22Rv1
T4 sequence (P49590 34-506): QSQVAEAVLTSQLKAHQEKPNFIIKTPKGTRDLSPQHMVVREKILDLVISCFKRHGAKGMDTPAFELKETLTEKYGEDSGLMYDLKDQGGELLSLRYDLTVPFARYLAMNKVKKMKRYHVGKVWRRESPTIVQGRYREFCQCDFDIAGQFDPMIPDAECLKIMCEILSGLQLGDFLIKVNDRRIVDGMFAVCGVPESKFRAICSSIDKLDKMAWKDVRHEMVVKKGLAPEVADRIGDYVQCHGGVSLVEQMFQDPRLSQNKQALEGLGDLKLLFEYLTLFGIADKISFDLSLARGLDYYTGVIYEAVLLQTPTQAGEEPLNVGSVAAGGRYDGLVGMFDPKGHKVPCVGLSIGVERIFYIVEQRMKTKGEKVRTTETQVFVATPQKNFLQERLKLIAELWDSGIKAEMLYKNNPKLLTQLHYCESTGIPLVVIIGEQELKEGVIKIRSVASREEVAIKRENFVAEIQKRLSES
In short: as §1

% engagement HSD11B2_C264 (HSD11B2_C264) | % engagement ZNF346_C68 (ZNF346_C68) | % engagement NELFCD_C169 (NELFCD_C169) | % engagement HARS2_C173 (HARS2_C173) | Structure (SMILES)
90.25% | 45.25% | 69.5% | 35.75% | C=CC(=O)N1C[C@H](c2ccc(Br)cc2)[C@H]1C(=O)Nc1cccc2cccnc12 [MY-3B, (2S,3S)-1-acryloyl-3-(4-bromophenyl)-N-(quinolin-8-yl)azetidine-2-carboxamide]
22% | 37% | 41.75% | 63.75% | C=CC(=O)N1C[C@H](c2ccc(Br)cc2)[C@@H]1C(=O)Nc1cccc2cccnc12 [MY-1B, (2R,3S)-1-acryloyl-3-(4-bromophenyl)-N-(quinolin-8-yl)azetidine-2-carboxamide]
23.5% | 14% | 40.75% | 35.25% | C=CC(=O)N1C[C@H](c2ccc(Br)cc2)[C@H]1C(=O)Nc1cccc2cccnc12 [MY-3A, (2S,3S)-1-acryloyl-3-(4-bromophenyl)-N-(quinolin-8-yl)azetidine-2-carboxamide]
30.5% | 95.5% | 51% | 84.75% | C=CC(=O)N1C[C@@H](c2ccc(Br)cc2)[C@H]1C(=O)Nc1cccc2cccnc12 [MY-1A, (2S,3R)-1-acryloyl-3-(4-bromophenyl)-N-(quinolin-8-yl)azetidine-2-carboxamide]
